# Results from patent US20240376076A1, “INHIBITORS TARGETING UBIQUITIN SPECIFIC PROTEASE 7 (USP7)” (Dana-Farber Cancer Institute, Inc., priority 2021, published 2024).
# Biological target: T1, USP7, Active human recombinant protein (Homo sapiens, UniProt Q93009)
# T1 construct: purchased CP Lot; 20200225001
# Experiment: USP7 assay (Ubiquitin-Rhodamine 110 enzymatic assay)
# Type: biochemical
# Conditions: read-out: IC50
# Experimental: Enzymatic Assays with Exemplary USP7 Irreversible Inhibitors
# ND refers to not disclosed.
# USP7, Active human recombinant protein (CP, Lot. 20200225001), Ubiquitin-Rhodamine 110 (Rh110) (BostonBiochem, Cat. No. U-555), DMSO (Sigma, Cat. N34869), DTT (Sangon Biotech, Cat. No. A620058-0005), […] Tris pH 8.0 (Sigma, Cat. No. T2694-1L), Tween-20 (Sigma, Cat. No. P2287-100ML), EDTA (Invitrogen, Cat. No. 15575020, BSA (Sigma, Cat. No. B2064-100G), 384-well assay plate (Corning, Cat. No. 3573), Echo Qualified 384-Well Polypropylene Microplate 2.0, Clear, Flat Bottom (LABCYTE, Cat. No. 001-14555).
# Dilute the compounds to 400× of the final desired highest inhibitor concentration in reaction by 100% DMSO. For all compounds, transfer the compounds to one well in a 384-well Echo plate and serially dilute the compound by 3-fold dilution of 100% DMSO in the next well and so forth for a total of 10 concentrations by Precision. Add 30 μL of 100% DMSO to two empty wells for no compound control and no enzyme control in the same 384-well Echo plate. Make the plate as a source plate.
# For USP7 assay, transfer 50 nL of each well from the source plate to a 384-well assay plate (OptiPlate TM-384 F black assay plates) by Echo 550 Liquid Handler.
# Added appropriate amount of USP7 in 1× assay Buffer to prepare 2× enzyme solution (USP7 final concentration: 0.05 nM). Added appropriate amount of Ubiquitin-Rhodamine 110 in 1× assay Buffer to prepare 2× substrate solution (Ubiquitin-Rhodamine 110 final concentration: 190 nM). Added 10 μL of 2× enzyme solution to each reaction well of the 384-well assay plate, except for control wells without enzyme (add 10 μL of 1× Assay Buffer instead as for low control). […] Transferred 2× substrate solution to the assay plate. Added 10 μL of 2× substrate solution to each well of the 384-well assay plate to start reaction. Centrifuged at 1000 rpm for 1 min. Read the plate kinetically on SpectraMax Paradigm for 20 min with excitation at 485 nm and emission at 535 nm. Copied raw data (slope) from Reader to obtain inhibition values in Excel using equation (1): […]
# Max signal was obtained from the action of Enzyme and Substrate. Min signal was obtained from the Substrate only. To fit the data in XLFit excel add-in version 5.4.0.8 to obtain IC50 values used equation (2): […]
# Y is % inhibition and X is compound concentration.
# T1 sequence (Q93009 whole entry): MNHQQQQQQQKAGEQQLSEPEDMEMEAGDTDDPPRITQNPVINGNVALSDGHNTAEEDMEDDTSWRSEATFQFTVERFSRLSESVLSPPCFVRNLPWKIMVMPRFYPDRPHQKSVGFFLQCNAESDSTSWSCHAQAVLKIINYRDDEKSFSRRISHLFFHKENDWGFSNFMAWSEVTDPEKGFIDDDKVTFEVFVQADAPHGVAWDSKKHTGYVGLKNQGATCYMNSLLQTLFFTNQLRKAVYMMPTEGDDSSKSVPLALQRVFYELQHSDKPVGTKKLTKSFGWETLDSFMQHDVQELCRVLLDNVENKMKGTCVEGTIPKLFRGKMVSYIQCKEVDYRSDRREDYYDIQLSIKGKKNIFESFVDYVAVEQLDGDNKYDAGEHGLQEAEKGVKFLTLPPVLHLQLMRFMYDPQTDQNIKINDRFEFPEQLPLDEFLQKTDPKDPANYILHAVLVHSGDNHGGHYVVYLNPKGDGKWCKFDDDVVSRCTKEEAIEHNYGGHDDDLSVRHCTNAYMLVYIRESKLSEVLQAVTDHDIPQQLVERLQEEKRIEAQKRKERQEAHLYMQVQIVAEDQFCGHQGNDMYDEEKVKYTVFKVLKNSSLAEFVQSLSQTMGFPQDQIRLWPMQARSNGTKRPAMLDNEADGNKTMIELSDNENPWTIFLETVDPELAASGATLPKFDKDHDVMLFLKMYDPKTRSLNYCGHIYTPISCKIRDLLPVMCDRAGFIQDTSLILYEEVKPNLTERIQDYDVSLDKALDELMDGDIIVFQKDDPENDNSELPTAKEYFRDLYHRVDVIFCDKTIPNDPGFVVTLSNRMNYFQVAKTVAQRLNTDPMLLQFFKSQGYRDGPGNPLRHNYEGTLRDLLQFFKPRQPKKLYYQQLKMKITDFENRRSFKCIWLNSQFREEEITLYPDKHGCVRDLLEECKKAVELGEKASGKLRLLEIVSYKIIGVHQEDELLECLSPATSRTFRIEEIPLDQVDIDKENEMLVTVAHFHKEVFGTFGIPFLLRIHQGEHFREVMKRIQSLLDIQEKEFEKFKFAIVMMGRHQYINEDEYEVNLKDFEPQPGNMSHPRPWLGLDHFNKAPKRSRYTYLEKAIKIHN
row,Structure (SMILES),IC50
1,"Cc1cc(Cl)n2cc(C(=O)NCCCC(Cc3ccccc3)C(=O)N3CCC(O)(Cn4cnc5cc(NC(=O)CCN(C)C)ccc5c4=O)CC3)cc2n1 (stereo not shown) [Compound 45, N-(4-benzyl-5-(4-((7-(3-(dimethylamino)propanamido)-4-oxoquinazolin-3(4H)-yl)methyl)-4-hydroxypiperidin-1-yl)-5-oxopentyl)-4-chloro-2-methylpyrrolo[1,2-a]pyrimidine-7-carboxamide]",> 1000 nM
2,CN(C)CCC(=O)Nc1ccc2c(=O)n(CC3(O)CCN(C(=O)C(CCCNc4cccc(-c5cc(Cl)ccn5)c4)Cc4ccccc4)CC3)cnc2c1 (stereo not shown) [Compound 46],> 1000 nM
3,"CN(C)CCC(=O)Nc1ccc2c(=O)n(CC3(O)CCN(C(=O)C(CCCNC(=O)c4cc5c(Cl)ccnc5[nH]4)Cc4ccccc4)CC3)cnc2c1 (stereo not shown) [Compound 48, N-(4-benzyl-5-(4-((7-(3-(dimethylamino)propanamido)-4-oxoquinazolin-3(4H)-yl)methyl)-4-hydroxypiperidin-1-yl)-5-oxopentyl)-4-chloro-1H-pyrrolo[2,3-b]pyridine-2-carboxamide]",> 1000 nM
4,"Cc1cc(Cl)c2ccc(C(=O)NCCC[C@H](Cc3ccccc3)C(=O)N3CCC(O)(Cn4cnc5cc(NC(=O)CCN(C)C)ccc5c4=O)CC3)cc2n1 [Compound 50, (R)—N-(4-benzyl-5-(4-((7-(3-(dimethylamino)propanamido)-4-oxoquinazolin-3(4H)-yl)methyl)-4-hydroxypiperidin-1-yl)-5-oxopentyl)-4-chloro-2-methylquinoline-7-carboxamide]",> 1000 nM
5,CN(C)CCC(=O)Nc1ccc2c(=O)n(CC3(O)CCN(C(=O)[C@@]4(Cc5ccccc5)CCN(CCNC(=O)c5ccc6c(Cl)ccnc6c5)C4)CC3)cnc2c1 [Compound 57],> 1000 nM
6,"CN1CCN(CCC(=O)Nc2ccc3c(=O)n(CC4(O)CCN(C(=O)[C@H](CCCNC(=O)c5ccc6c(Cl)ccnc6c5)Cc5ccccc5)CC4)cnc3c2)CC1 [Compound 58, (R)—N-(4-benzyl-5-(4-hydroxy-4-((7-(3-(4-methylpiperazin-1-yl)propanamido)-4-oxoquinazolin-3(4H)-yl)methyl)piperidin-1-yl)-5-oxopentyl)-4-chloroquinoline-7-carboxamide]",> 1000 nM
7,COc1cc(Cl)c2ccc(C(=O)NCCCC(Cc3ccccc3)C(=O)N3CCC(O)(Cn4cnc5cc(NC(=O)CCN(C)C)ccc5c4=O)CC3)cc2n1 (stereo not shown) [Compound 66],> 1000 nM
8,COc1cc(Cl)nc2cc(C(=O)NCCCC(Cc3ccccc3)C(=O)N3CCC(O)(Cn4cnc5cc(NC(=O)CCN(C)C)ccc5c4=O)CC3)ccc12 (stereo not shown) [Compound 67],> 1000 nM
9,CN(C)CCC(=O)Nc1ccc2c(=O)n(CC3(O)CCN(C(=O)C(CCCNC(=O)c4ccc5c(Cl)nccc5c4)Cc4ccccc4)CC3)cnc2c1 (stereo not shown) [Compound 68],> 1000 nM
10,CN(C)CCC(=O)Nc1ccc2c(=O)n(CC3(O)CCN(C(=O)[C@H]4CCN(CCNC(=O)c5ccc6c(Cl)ccnc6c5)C[C@@H]4c4ccccc4)CC3)cnc2c1 [Compound 74],> 1000 nM
11,CN(C)CCC(=O)Nc1ccc2c(=O)n(CC3(O)CCN(C(=O)N(CCCNC(=O)c4ccc5c(Cl)ccnc5c4)Cc4ccccc4)CC3)cnc2c1 [Compound 83],> 1000 nM
12,CN(C)CCC(=O)Nc1ccc2c(=O)n(CC3(O)CCN(C(=O)C(CCCNC(=O)c4ccc5c(Cl)c6c(nc5c4)CNCC6)Cc4ccccc4)CC3)cnc2c1 (stereo not shown) [Compound 88],> 1000 nM
13,CC1(C)C2C(=O)N(CC3(O)CCN(C(=O)[C@@H]4CCN(CCNC(=O)c5ccc6c(Cl)ccnc6c5)C[C@H]4c4ccccc4)CC3)C(=O)C21 (stereo partly shown) [Compound 99],> 1000 nM
14,O=C(CCN1CCNCC1)Nc1ccn2c(=O)c(CN3CCN(C(=O)[C@@H]4CCN(CCNC(=O)c5ccc6c(Cl)ccnc6c5)C[C@H]4c4ccccc4)CC3)cnc2c1 [Compound 100],> 1000 nM
15,O=C(CCN1CCNCC1)Nc1ccc2c(=O)n(CC3(O)CCN(C(=O)[C@@H]4CCN(CCNC(=O)c5ccc6c(Cl)ccnc6c5)C[C@H]4c4ccc(C(F)(F)F)cc4)CC3)cnc2c1 [Compound 101],> 1000 nM

# Now from value to molecule:
row,IC50,Structure (SMILES)
1,> 1000 nM,"CN(C)CCOc1ccc2ncn(CC3(O)CCN(C(=O)C(CCCNC(=O)c4ccc5c(Cl)ccnc5c4)Cc4ccccc4)CC3)c(=O)c2c1 (stereo not shown) [Compound 39, N-(4-benzyl-5-(4-((6-(2-(dimethylamino)ethoxy)-4-oxoquinazolin-3(4H)-yl)methyl)-4-hydroxypiperidin-1-yl)-5-oxopentyl)-4-chloroquinoline-7-carboxamide]"
2,< 20 nM,CN(C)CCC(=O)Nc1ccc2c(=O)n(CC3(O)CCN(C(=O)[C@@H](CCCNC(=O)c4ccc5c(Cl)c6c(nc5c4)CN(C)CC6)Cc4ccccc4)CC3)cnc2c1 [Compound 41]
3,100 to 1000 nM,CN(C)CCC(=O)Nc1ccc2c(=O)n(CC3(O)CCN(C(=O)[C@H](CCCNC(=O)c4ccc5c(Cl)c6c(nc5c4)CN(C)CC6)Cc4ccccc4)CC3)cnc2c1 [Compound 42]
4,> 1000 nM,"Cc1cc(Cl)nc2c(C(=O)NCCCC(Cc3ccccc3)C(=O)N3CCC(O)(Cn4cnc5cc(NC(=O)CCN(C)C)ccc5c4=O)CC3)ccn12 (stereo not shown) [Compound 44, N-(4-benzyl-5-(4-((7-(3-(dimethylamino)propanamido)-4-oxoquinazolin-3(4H)-yl)methyl)-4-hydroxypiperidin-1-yl)-5-oxopentyl)-2-chloro-4-methylpyrrolo[1,2-a]pyrimidine-8-carboxamide]"
5,20 to 100 nM,"Cc1cc(Cl)c2ccc(C(=O)NCCC[C@@H](Cc3ccccc3)C(=O)N3CCC(O)(Cn4cnc5cc(NC(=O)CCN(C)C)ccc5c4=O)CC3)cc2n1 [Compound 51, (S)—N-(4-benzyl-5-(4-((7-(3-(dimethylamino)propanamido)-4-oxoquinazolin-3(4H)-yl)methyl)-4-hydroxypiperidin-1-yl)-5-oxopentyl)-4-chloro-2-methylquinoline-7-carboxamide]"
6,100 to 1000 nM,"CN(C)CCC(=O)Nc1ccc2c(=O)n(CC3(O)CCN(C(=O)c4cnn(CCNC(=O)c5ccc6c(Cl)ccnc6c5)c4Cc4ccccc4)CC3)cnc2c1 [Compound 53, N-(2-(5-benzyl-4-(4-((7-(3-(dimethylamino)propanamido)-4-oxoquinazolin-3(4H)-yl)methyl)-4-hydroxypiperidine-1-carbonyl)-1H-pyrazol-1-yl)ethyl)-4-chloroquinoline-7-carboxamide]"
7,100 to 1000 nM,"O=C(CCn1cccn1)Nc1ccc2c(=O)n(CC3(O)CCN(C(=O)C(CCCNC(=O)c4ccc5c(Cl)ccnc5c4)Cc4ccccc4)CC3)cnc2c1 (stereo not shown) [Compound 64, N-(5-(4-((7-(3-(JH-pyrazol-1-yl)propanamido)-4-oxoquinazolin-3(4H)-yl)methyl)-4-hydroxypiperidin-1-yl)-4-benzyl-5-oxopentyl)-4-chloroquinoline-7-carboxamide]"
8,100 to 1000 nM,CN(C)CCC(=O)Nc1ccc2c(=O)n(CC3(O)CCN(C(=O)[C@@H]4CN(CCNC(=O)c5ccc6c(Cl)ccnc6c5)C[C@H]4c4ccccc4)CC3)cnc2c1 [Compound 76]
9,100 to 1000 nM,CN(C)CCC(=O)Nc1ccc2c(=O)n(CC3(O)CCN(C(=O)C(CCCNC(=O)c4ccc5c(Cl)ccnc5c4)Cc4cccnc4)CC3)cnc2c1 (stereo not shown) [Compound 82]
10,20 to 100 nM,CN(C)CCC(=O)Nc1ccc2c(=O)n(CC3(O)CCN(C(=O)C(CCCNC(=O)c4ccc5c(Cl)c6c(nc5c4)CCOC6)Cc4ccccc4)CC3)cnc2c1 (stereo not shown) [Compound 90]
11,20 to 100 nM,C=CS(=O)(=O)Nc1ccccc1N1CCC(C(=O)N2CCC(O)(Cn3cnc4cc(NC(=O)CCN5CCN(C)CC5)ccc4c3=O)CC2)CC1 [Compound 92]
12,100 to 1000 nM,O=C(NCCN1CC[C@@H](C(=O)N2CCC(O)(Cn3cnc4c(-c5ccc(Br)cc5)nsc4c3=O)CC2)[C@H](c2ccccc2)C1)c1ccc2c(Cl)ccnc2c1 [Compound 98]
13,100 to 1000 nM,C=CC(=O)Nc1ccc(Cl)cc1N1CCC(C(=O)N2CCC(O)(Cn3cnc4cc(NC(=O)CCN5CCN(C)CC5)ccc4c3=O)CC2)C(c2ccccc2)C1 (stereo not shown) [Compound 103]
14,100 to 1000 nM,C=CC(=O)Nc1ccc(C(F)(F)F)cc1N1CCC(C(=O)N2CCC(O)(Cn3cnc4cc(NC(=O)CCN5CCN(C)CC5)ccc4c3=O)CC2)C(c2ccccc2)C1 (stereo not shown) [Compound 104]
15,20 to 100 nM,O=C(NCCN1CCC(C(=O)N2CCC(O)(Cn3cnc4cc(OCCN5CCNCC5)ccc4c3=O)CC2)C(c2ccccc2)C1)c1ccc2c(Cl)cc(C3CC3)nc2c1 (stereo not shown) [Compound 107]
16,100 to 1000 nM,CN(C)CCOc1cc(F)c2c(=O)n(CC3(O)CCN(C(=O)[C@H](CCCNC(=O)c4ccc5c(Cl)cc(C6CC6)nc5c4)Cc4ccccc4)CC3)cnc2c1 [Compound 118]
